Measurements taken from the NIST ThermoML archive (doi:10.1016/j.jct.2019.03.007).

Experiment: molar heat capacity at constant pressure
Settings: 101.33 kPa, Crystal 1, DSC

O=[N+]([O-])[O-].O=[N+]([O-])[O-].[Ca+2] [calcium nitrate]
Settings | molar heat capacity at constant pressure [J/K/mol]
588.78 K | 184.89
589 K | 182.82
589.78 K | 184.99
590 K | 182.96
590.78 K | 185.09
591 K | 183.01
591.78 K | 185.18
592 K | 183.11
592.78 K | 185.28
593 K | 183.23
593.78 K | 185.38
594 K | 183.3
594.78 K | 185.47
595 K | 183.39
595.78 K | 185.57
596 K | 183.46
596.78 K | 185.66
597 K | 183.59
597.78 K | 185.76
598 K | 183.69
598.78 K | 185.85
599 K | 183.86
599.78 K | 185.95
600 K | 183.94
600.78 K | 186.04
601 K | 184.09
601.78 K | 186.13
602 K | 184.37
602.78 K | 186.22
603 K | 184.48
603.78 K | 186.31
604 K | 184.5
604.78 K | 186.4
605 K | 184.57
605.78 K | 186.49
606 K | 184.76
606.78 K | 186.58
607 K | 184.8
607.78 K | 186.67
608 K | 184.92
608.78 K | 186.76
609 K | 184.95
609.78 K | 186.85
610 K | 185
610.78 K | 186.93
611 K | 185.16
611.78 K | 187.02
612 K | 185.17
612.78 K | 187.1
613 K | 185.37
613.78 K | 187.19
614 K | 185.43
614.78 K | 187.28
615 K | 185.38
615.78 K | 187.37
616 K | 185.46
616.78 K | 187.46
617 K | 185.59
617.78 K | 187.56
618 K | 185.67
618.78 K | 187.65
619 K | 185.79
619.78 K | 187.75
620 K | 185.94
620.78 K | 187.84
621 K | 185.97
621.78 K | 187.94
622 K | 185.98
622.78 K | 188.03
623 K | 186.1
623.78 K | 188.13
624 K | 186.22
624.78 K | 188.23
625 K | 186.24
625.78 K | 188.32
626 K | 186.32
626.78 K | 188.42
627 K | 186.29
627.78 K | 188.51
628 K | 186.36
628.78 K | 188.61
629 K | 186.58
629.78 K | 188.7
630 K | 186.72
630.78 K | 188.8
631 K | 186.76
631.78 K | 188.9
632 K | 186.86
632.78 K | 189
633 K | 186.9
633.78 K | 189.1
634 K | 187.01
634.78 K | 189.2
635 K | 187.13
635.78 K | 189.3
636 K | 187.08
636.78 K | 189.41
637 K | 187.29
637.78 K | 189.51
638 K | 187.33
638.78 K | 189.61
639 K | 187.55
639.78 K | 189.71
640 K | 187.7
640.78 K | 189.82
641 K | 187.58
641.78 K | 189.92
642 K | 187.69
642.78 K | 190.01
643 K | 187.72
643.78 K | 190.11
644 K | 187.93
644.78 K | 190.2
645 K | 188.1
645.78 K | 190.29
646 K | 188.11
646.78 K | 190.39
647 K | 188.18
647.78 K | 190.49
648 K | 188.31
648.78 K | 190.58
649 K | 188.36
649.78 K | 190.69
650 K | 188.66
650.78 K | 190.8
651 K | 188.76
651.78 K | 190.9
652 K | 188.78
652.78 K | 191.02
653 K | 188.91
653.78 K | 191.13
654 K | 188.99
654.78 K | 191.25
655 K | 189.03
655.78 K | 191.36
656 K | 189.11
656.78 K | 191.46
657 K | 189.18
657.78 K | 191.57
658 K | 189.28
658.78 K | 191.67
659 K | 189.43
659.78 K | 191.77
660 K | 189.5
660.78 K | 191.87
661 K | 189.61
661.78 K | 191.96
662 K | 189.79
662.78 K | 192.06
663 K | 189.99
663.78 K | 192.15
664 K | 190.04
664.78 K | 192.23
665 K | 190.04
665.78 K | 192.32
666 K | 190.16
666.78 K | 192.4
667 K | 190.23
667.78 K | 192.49
668 K | 190.12
668.78 K | 192.56
669 K | 190.21
669.78 K | 192.64
670 K | 190.28
670.78 K | 192.72
671 K | 190.33
671.78 K | 192.79
672 K | 190.55
672.78 K | 192.86
673 K | 190.57
673.78 K | 192.94
674 K | 190.71
674.78 K | 193.03
675 K | 190.83
675.78 K | 193.12
676 K | 190.98
676.78 K | 193.22
677 K | 191.19
677.78 K | 193.31
678 K | 191.02
678.78 K | 193.41
679 K | 190.93
679.78 K | 193.5
680 K | 191.02
680.78 K | 193.6
681 K | 191.22
681.78 K | 193.69
682 K | 191.4
682.78 K | 193.78
683 K | 191.29
683.78 K | 193.87
684 K | 191.45
684.78 K | 193.96
685 K | 191.66
685.78 K | 194.03
686 K | 191.74
686.78 K | 194.08
687 K | 191.8
687.78 K | 194.13
688 K | 191.86
688.78 K | 194.18
689 K | 191.92
689.78 K | 194.23
690 K | 192.07
690.78 K | 194.31
691 K | 192.16
691.78 K | 194.39
692 K | 192.21
692.78 K | 194.47
693 K | 192.34
693.78 K | 194.54
694 K | 192.63
694.78 K | 194.6
695 K | 192.66
695.78 K | 194.65
696 K | 192.73
696.78 K | 194.69
697 K | 192.85
697.78 K | 194.72
698 K | 192.92
698.78 K | 194.76
699 K | 192.96
699.78 K | 194.82
700 K | 193.02
700.78 K | 194.88
701 K | 192.93
701.78 K | 194.97
702 K | 193.11
702.78 K | 195.08
703 K | 193.19
703.78 K | 195.21
704 K | 193.21
704.78 K | 195.34
705 K | 193.35
705.78 K | 195.47
706 K | 193.66
706.78 K | 195.61
707 K | 193.92
707.78 K | 195.75
708 K | 194.3
708.78 K | 195.89
709 K | 194.69
709.78 K | 196.04
710 K | 194.54
710.78 K | 196.23
711 K | 194.48
711.78 K | 196.47
712 K | 194.48
712.78 K | 196.76
713 K | 194.61
713.78 K | 197.06
714.78 K | 197.32
715.78 K | 197.53
716.78 K | 197.7
717.78 K | 197.7
718.78 K | 197.46
